Assay results as given in paper PMC9144521 (Viruses, 2022).
pEC50: −log10 of the molar value. Structures can show the parent of a compound that is named as a salt.

Experiments:
[1] = system: AdV3; assay: Anti-AdV activity assay (IFA of hexon), secondary screen, AdV3; type: cell-based, Human adenoviruses type 3; conditions: for Selective Index AdV3: CC50/EC50, Vero cells; for pEC50: Vero cells, 48 h, IFA of hexon, 0.02 to 5 μM
[2] = system: AdV5; assay: Anti-AdV activity assay (IFA of hexon), secondary screen, AdV5; type: cell-based, Human adenoviruses type 5; conditions: for Selective Index AdV5: CC50/EC50, Vero cells; for pEC50: Vero cells, 48 h, IFA of hexon, 0.02 to 5 μM
[3] = in vitro; conditions: African green monkey
[4] = system: Vero cells

| Molecule | Selective Index AdV3 [1] | pEC50 [1] | Selective Index AdV5 [2] | pEC50 [2] | CC50 at 48 h ([3]; Vero cells) [nM] | CC50 [4] [nM] | CC50 at 48 h [3] [nM] |
| --- | --- | --- | --- | --- | --- | --- | --- |
| CCNC(=O)Nc1ccc(-c2nc3c(c(N4CCOC[C@@H]4C)n2)CCN(C2COC2)C3)cc1 [GDC-0349] | >3.63 | 5.86 | >1.91 | 5.58 | > 5000 |  |  |
| CC(C)n1nc(-c2ccc3oc(N)nc3c2)c2c(N)ncnc21 [INK 128] | 161.78 | 8.00 | 61.27 | 8.00 | 850 |  |  |
| c1cncc(CN2CCC(n3ncc4c(N5CCOCC5)nc(-c5ccc6[nH]ccc6c5)nc43)CC2)c1 [WAY-600] | 5.51 | 6.25 | 2.86 | 5.96 |  | 3110 |  |
| CC(C)c1cc(C(=O)N2Cc3ccc(CN4CCN(C)CC4)cc3C2)c(O)cc1O [AT13387] | >61.84 | 7.10 | >27.13 | 6.74 | > 5000 |  |  |
| O=C1c2ccc(Nc3ccc(F)cc3F)cc2CCc2ccc(OC[C@H](O)CO)cc21 [Skepinone-L] | 11.84 | 6.74 | 0.83 | 5.59 |  |  | 2140 |
| Cc1ccc(-n2nc(C(C)(C)C)cc2NC(=O)Nc2ccc(OCCN3CCOCC3)c3ccccc23)cc1 [Doramapimod] | >14.24 | 6.46 |  | < 5.30 |  |  | > 5000 |
| CNC(=O)c1cc(Oc2ccc(NC(=O)Nc3ccc(Cl)c(C(F)(F)F)c3)cc2)ccn1 [Sorafenib Tosylate] | 4.67 | 5.90 | 1.53 | 5.41 |  |  | > 5000 |
| COc1c(C)cnc(Cn2cnc3c(Cl)nc(N)nc32)c1C [BIIB021] | >48.73 | 7.00 | >21.2 | 6.62 |  |  | > 5000 |
| S=C(NCc1ccc2c(c1)OCO2)N1CCN(c2ncnc3c2oc2ccccc23)CC1 [Amuvatinib] | 2.10 | 5.40 | 4.64 | 5.74 | > 5000 |  |  |
| COc1cccc2cc(-c3nc([C@H]4CC[C@H](C(=O)O)CC4)n4ncnc(N)c34)[nH]c12 [OSI-027] | >3.62 | 5.86 | >2.08 | 5.62 |  |  | > 5000 |
| COc1cc(Nc2ncc(F)c(Nc3ccc4c(n3)N(COP(=O)(O)O)C(=O)C(C)(C)O4)n2)cc(OC)c1OC [R788] | 6.65 | 6.64 | 1.48 | 5.97 | 1560 |  |  |
| COc1ccc(-c2ccc3c(N4CCOC[C@@H]4C)nc(N4CCOC[C@@H]4C)nc3n2)cc1CO [AZD8055] | >44.72 | 6.96 | >31.87 | 6.80 |  |  | > 5000 |
| CCNC(=O)c1noc(-c2cc(C(C)C)c(O)cc2O)c1-c1ccc(CN2CCOCC2)cc1 [AUY922] | >28.56 | 6.74 | >22.11 | 6.64 |  |  | > 5000 |
| CNC(=O)c1cccc(-c2ccc3c(N4CCOC[C@@H]4C)nc(N4CCOC[C@@H]4C)nc3n2)c1 [AZD2014] | 171.31 | 7.70 | 56.82 | 7.15 |  |  | 4050 |
| CCCCOc1c(C(=O)c2c(F)cc(C)cc2F)c[nH]c2nncc1-2 [BMS-265246] | >7.84 | 6.19 | >8.35 | 6.22 | > 5000 |  |  |
| CC(C)c1cc(-c2n[nH]c(=O)n2-c2ccc3c(ccn3C)c2)c(O)cc1O [STA-9090] | 97.56 | 7.30 | 76.73 | 7.30 | 4440 |  |  |
| O=C(/C=C\n1cnc(-c2cc(C(F)(F)F)cc(C(F)(F)F)c2)n1)NNc1cnccn1 [KPT-330] | 15.45 | 7.00 | 3.04 | 6.28 |  |  | 1580 |
| CNC(=O)c1cc(Oc2ccc(NC(=O)Nc3ccc(Cl)c(C(F)(F)F)c3)c(F)c2)ccn1 [Regorafenib] | 9.30 | 6.36 | 2.72 | 5.82 | 4060 |  |  |
| Cn1c2ccccc2c2c3c(c4c5ccccc5n(CCC#N)c4c21)CNC3=O [Go6976] | 6.39 | 6.21 | 3.22 | 5.91 | 3950 |  |  |
| Nc1ccc(-c2ccc3ncc4ccc(=O)n(-c5cccc(C(F)(F)F)c5)c4c3c2)cn1 [Torin 2] |  | 6.51 |  | 7.05 |  |  |  |
| CNC(=O)CN1CCC(Oc2cc3c(Nc4cccc(Cl)c4F)ncnc3cc2OC)CC1 [AZD8931] | >96.15 | 7.30 |  | < 5.30 |  |  | > 5000 |

| Molecule | Selective Index AdV3 [1] | pEC50 [1] | Selective Index AdV5 [2] | pEC50 [2] | CC50 at 48 h ([3]; Vero cells) [nM] | CC50 [4] [nM] | CC50 at 48 h [3] [nM] |
| --- | --- | --- | --- | --- | --- | --- | --- |
| CN1CCN(c2ccc(Nc3ncc4cc(C#N)c(=O)n(C5CCCC5)c4n3)cc2)CC1 [ON123300] | >1.72 | 5.54 | >3.08 | 5.79 | > 5000 |  |  |
| CO[C@H]1/C=C\C=C(/C)C(=O)NC2=CC(=O)C(NCCN(C)C)=C(C[C@@H](C)C[C@H](OC)[C@H](O)[C@@H](C)/C=C(\C)[C@@H]1OC(N)=O)C2=O [17-DMAG] | >23.20 | 6.66 | >11.58 | 6.37 |  |  | > 5000 |
| CO[C@H]1CC[C@H](N2C(=O)CNc3ncc(-c4ccc(C(C)(C)O)nc4)nc32)CC1 [CC-223] | >4.50 | 5.95 | >3.62 | 5.86 | > 5000 |  |  |
| COc1c(C)c2c(c(O)c1C/C=C(\C)CCC(=O)OCCN1CCOCC1)C(=O)OC2 [Mycophenolate Mofetil] | >2.72 | 5.74 | >25.83 | 6.72 | > 5000 |  |  |
| COC1=C2C[C@@H](C)C[C@H](OC)[C@H](O)[C@@H](C)/C=C(\C)[C@H](OC(N)=O)[C@@H](OC)/C=C\C=C(/C)C(=O)NC(=CC1=O)C2=O [Geldanamycin] | >3.38 | 5.83 |  | < 5.30 |  |  | > 5000 |
| CC1(C)CC(=O)c2c(C(F)(F)F)nn(-c3ccc(C(N)=O)c(N[C@H]4CC[C@H](OC(=O)CN)CC4)c3)c2C1 [PF-04929113] | >26.61 | 6.72 | >12.46 | 6.40 |  |  | > 5000 |
| CNC(=O)c1ccc(C)c(-n2c(C)cc(OCc3ccc(F)cc3F)c(Br)c2=O)c1 [PH-797804] | >250.00 | 7.70 | >3.16 | 5.80 |  |  | > 5000 |
| N#CC1(c2ccc(NC(=O)c3cccnc3NCc3ccncc3)cc2)CCCC1 [Apatinib] | >15.41 | 6.49 | >1.39 | 5.44 |  |  | > 5000 |
| CCn1c(=O)c(-c2cc[nH]n2)cc2c(C)nc(N)nc21 [Voxtalisib] | 4.83 | 6.33 | 0.83 | 5.57 |  |  | 2260 |
| COc1cccc(-c2ccc(NC(=O)C3=C(C(=O)O)CCC3)c(F)c2)c1 [Vidofludimus] | >3.07 | 5.79 | >5.35 | 6.03 | > 5000 |  |  |
| Cc1nc(Nc2[nH]nc3c2CN(C(=O)N[C@H](CN(C)C)c2ccccc2)C3(C)C)c2sccc2n1 [PF-3758309] | >9.29 | 6.27 | >2.22 | 5.65 | > 5000 |  |  |
| CO[C@@H](C)Cn1c(=O)n(C)c2cnc3ccc(-c4cncc(C(C)(C)O)c4)cc3c21 [LY3023414] | >5.58 | 6.05 | >3.83 | 5.88 |  |  | > 5000 |
| CC1(C)CC(=O)c2c(C(F)(F)F)nn(-c3ccc(C(N)=O)c(N[C@H]4CC[C@H](O)CC4)c3)c2C1 [SNX-2112] | >28.87 | 6.77 | >15.09 | 6.48 | > 5000 |  |  |
| O=C(c1ccc(/C=C/c2n[nH]c3ccccc23)cc1)N1CCNCC1 [KW-2449] | >1.37 | 5.44 | >3.91 | 5.89 |  |  | > 5000 |
| CN1CCC(NC(=O)c2cc(-c3c(O)cc(O)cc3Oc3ccc([N+](=O)[O-])cc3)on2)CC1 [NMS-E973] |  | 6.04 |  | 5.31 |  |  |  |
| COc1cc2ncnc(Nc3ccc(F)c(Cl)c3)c2cc1NC(=O)/C=C/CN1CCCCC1 [Dacomitinib] | 6.31 | 6.11 | 2.97 | 5.79 | 4880 |  |  |
| Cc1c(CN2CCN(C(=O)[C@H](C)O)CC2)sc2c(N3CCOCC3)nc(-c3cnc(N)nc3)nc12 [GDC-0980] | 36.44 | 7.10 | 10.96 | 6.57 |  |  | 3000 |
| CC(C)NCCCn1c(Sc2cc3c(cc2I)OCO3)nc2c(N)ncnc21 [PU-H71] | >6.79 | 6.13 | >2.27 | 5.66 | > 5000 |  |  |
| AZD4547 | 8.78 |  |  |  |  |  |  |
| NC(=O)CCCSc1nc(N)nc(-c2c(Cl)cc3c4c(cccc24)COC3)n1 [CH5138303] |  | 7.05 |  | 6.19 |  |  |  |
| Cn1c(Nc2ccc(C(F)(F)F)cc2)nc2cc(Oc3ccnc(-c4ncc(C(F)(F)F)[nH]4)c3)ccc21 [RAF265] | >3.91 | 5.89 |  | < 5.30 |  |  | > 5000 |
